Measured values: the NIST ThermoML archive (doi:10.1016/j.tca.2018.04.014)
± gives the expanded uncertainty stated by the source.

How the values were obtained:
[1] = DSC
[2] = Molar enthalpy of transition or fusion; settings: DSC

Triple point temperature ([1]; Crystal 1) [K]	Triple point temperature ([1]; Crystal 2) [K]	Triple point temperature ([1]; Crystal 3) [K]	Molar enthalpy of transition or fusion ([2]; Crystal 2) [kcal/mol]	Molar enthalpy of transition or fusion ([2]; Crystal 3) [kcal/mol]	Compound
452.7 ± 3.1	372.3 ± 3.1	242.8 ± 3.1	0.0359 ± 0.17	2.68 ± 0.182	CC1(C)[C@@H]2CC[C@@]1(C)C(=O)C2 [d-camphor]
479.7 ± 3.1	347.4 ± 3.1	212.3 ± 3.1	0.715 ± 0.174	0.172 ± 0.172	CC1(C)[C@H]2CC[C@]1(C)[C@H](O)C2 [(1S-endo)-1,7,7-trimethylbicyclo[2.2.1]heptan-2-ol]
481.6 ± 3.1	346.7 ± 3.1	213.5 ± 3.1	0.724 ± 0.174	0.179 ± 0.172	CC1(C)[C@@H]2CC[C@@]1(C)[C@@H](O)C2 [d-borneol]
453.9 ± 3.1	375.3 ± 3.1	246.3 ± 3.1	0.0382 ± 0.17	3.17 ± 0.184	CC1(C)[C@H]2CC[C@]1(C)C(=O)C2 [(1S)-1,7,7-trimethylbicyclo[2.2.1]heptan-2-one]
